Measurements: patent US6759538B2, “Substituted diphenyl heterocycles useful for treating HCV infection” (priority 2001, dated 2004)

Legend:
HCV replicon = HCV replicon assay (luciferase); type: cell-based, Hepatitis C virus (HCV); conditions: 5-2 Luc replicon cells, 24 hours with compound, luciferase emission; first symbol of Replicon/Western
Text: In one embodiment, the inhibitory activity of the compounds can be confirmed in a replicon assay that assesses the ability of a test compound to block or inhibit HCV replication in replicon cells. One example of a suitable replicon assay is the liver cell-line Huh 7-based replicon assay described in Lohmann et al., 1999, Science 285:110-113. A specific example of this replicon assay which utilizes luciferase translation is provided in the Examples Section. In one embodiment of this assay, the amount of test compound that yields a 50% reduction in translation as compared to a control cell (IC50) may be determined.
The inhibitory activity of certain exemplary compounds of the invention was confirmed using an HCV replicon assay. The HCV replicon can include such features as the HCV 5′ untranslated region including the HCV IRES, the HCV 3′ untranslated region, selected HCV genes encoding HCV polypeptides, selectable markers, and a reporter gene such as luciferase, GFP, etc. In the assay, actively dividing 5-2 Luc replicon-comprising cells (obtained from Rolf Bartenschlager; see Lohmann et al., 1999, Science 285:110-113) were seeded at a density of between about 5,000 and 7,500 cells/well onto 96 well plates (about 90 μl of cells per well) and incubated at 37° C. and 5% CO2 for 24 hours. Then, the test compound (in a volume of about 10 μl) was added to the wells at various concentrations and the cells were incubated for an additional 24 hours before luciferase assay. The media was aspirated from each well and Bright-Glo (Promega, Madison, Wis.) luciferase assay reagents were added to each well according to the manufacturer's instructions. Briefly, the Bright-Glo reagent was diluted 1:1 with PBS and 100 μl of diluted reagent was added to each well. After 5 min of incubation at room temperature, luciferin emission was quantified with a luminometer. In this assay, the amount of test compound that yielded a 50% reduction in luciferase emission (IC50) was determined.

[1] = system: HCV nonstructural protein NS5A; experiment: Quantitative Western blot assay; type: cell-based, Hepatitis C virus (HCV); conditions: 9-13 replicon cells, 48 hours with compound, second symbol of Replicon/Western
Procedure: Alternatively, the inhibitory activity of the compounds can be confirmed using a quantitative Western immunoblot assay utilizing antibodies specific for HCV non-structural proteins, such as NS3, NS4A NS5A and NS5B. In one embodiment of this assay, replicon cells are treated with varying concentrations of test compound to determine the concentration of test compound that yields a 50% reduction in the amount of a non-structural protein produced as compared to a control sample (IC50). A single non-structural protein may be quantified or multiple non-structural proteins may be quantified. Antibodies suitable for carrying out such immunoblot assays are available commercially (e.g., from BIODESIGN International, Saco, Me.).
Certain exemplary compounds of the invention were also tested for their ability to inhibit HCV replication using a quantitative Western blot analysis with antibodies specific for the HCV nonstructural protein NS5A. Actively dividing 9-13 replicon cells were seeded into 6-well plates at a density of 1×10^5 cells/well in a volume of 2 ml/well and incubated at 37° C. and 5% CO2 for 24 hours. Various concentrations of test compounds (in a volume of 10 ul) were added to the wells and the cells incubated for another 48 hours. Protein samples were prepared from the cultured cells, resolved on a SDS-PAGE gel and transferred to a nitrocellulose membrane. The membrane was blocked with 5% non-fat milk in PBS for 1 hour at room temperature. Primary antibody (anti NS5A antibody; BIODESIGN International, Saco, Me.) incubation was performed for 1 hour at room temperature, after which the membrane was washed 3 times (for 15 min per time) with PBST (PBS plus 0.1% Tween 20). Horseradish peroxidase conjugated secondary antibody incubation was performed for 1 hour at room temperature and the membrane was washed 3 times (for 15 min per time) with PBST. The membrane was then soaked in substrate solution (Pierce) and exposed to a film or quantified using an imager. In this assay, the amount of test compound that yielded a 50% reduction in the amount of NS5A protein translated as compared to a control sample (IC50) was determined.

[2] = system: 5-2 Luc cells, 9-13 cells or Huh-7 cells; experiment: Cytotoxicity assay (Cell Titer Glo); conditions: read-out: IC50 cytotoxicity (number of viable cells), liver cells including an HCV replicon, 24 hr
Procedure: In the assay, cells were seeded onto 96-well plates (approx. 7500 cells/well in a volume of 90 μl) and grown for 24 hr at 37° C. On day 2, various concentrations of test compound (in a volume of 10 μl) were added to the wells and the cells were grown for an additional 24 hr at 37° C. On day 3, an ATP-dependent R-Luciferase assay (Cell Titer Glo assay) was performed to determine the number of viable cells.

Question: Which IC50 (HCV replicon) does the source give for “2,2-Dichloro-N-[3-[3-[2-(N-morpholino)-6-trifluoromethylphenyl)-5-isoxazolyl]phenyl] Acetamide [Compound 37]” here?
Answer: ≤ 10 µM

Question: What about the IC50 [1] of the same compound?
Answer: ≤ 10 µM

Question: With “2,2-Dichloro-N-[3-[3-[2-fluoro-(6-N-morpholinosulfamoyl)phenyl]-5-isoxazolyl]-phenyl] Acetamide [Compound 21]” as the compound, how does the IC50 (HCV replicon) read?
Answer: ≤ 10 µM

Question: What about the IC50 [1] of the same compound?
Answer: ≤ 10 µM

Question: How did the IC50 (HCV replicon) turn out when O=C(Nc1cc(-c2cc(-c3c(Cl)cccc3Cl)no2)ccc1F)C(Cl)Cl [Compound 1, 2,2-Dichloro-N-[3-[3-(2,6-dichlorophenyl)-5-isoxazolyl]-6-fluorophenyl] Acetamide] was run?
Answer: ≤ 10 µM

Question: What about the IC50 [1] of the same compound?
Answer: ≤ 10 µM

Question: For O=C(Nc1cccc(-c2cc(-c3cccc(Cl)c3Cl)no2)c1)C(Cl)Cl [Compound 3, 2,2-Dichloro-N-[3-[3-(2,3-dichlorophenyl)-5-isoxazolyl]phenyl] Acetamide], which IC50 (HCV replicon) is on record?
Answer: > 10 µM

Question: What about the IC50 [1] of the same compound?
Answer: ≤ 10 µM

Question: What does the source list for O=C(Nc1cccc(-c2cc(-c3c(Cl)cccc3Cl)on2)c1)C(Cl)Cl [Compound 5, 2,2-Dichloro-N-[3-[5-(2,6-dichlorophenyl)-3-isoxazolyl]phenyl] Acetamide]?
Answer: IC50 (HCV replicon): ≤ 10 µM; IC50 [1]: ≤ 10 µM

Question: With O=C(Nc1cccc(-c2cc(-c3c(Cl)cccc3N3CCOCC3)no2)c1)C(Cl)Cl [Compound 7, 2,2-Dichloro-N-[3-[3-[2-chloro-6-(N-morpholino)phenyl]-5-isoxazolyl]phenyl] Acetamide] as the compound, how does the IC50 (HCV replicon) read?
Answer: ≤ 10 µM

Question: And the IC50 [1]?
Answer: ≤ 10 µM

Question: Which results are given for CSc1cccc(F)c1-c1cc(-c2cccc(NC(=O)C(Cl)Cl)c2)on1 [Compound 11, 2,2-Dichloro-N-[3-[3-(2-fluoro-6-thiomethylphenyl)-5-isoxazolyl]phenyl] Acetamide]?
Answer: IC50 (HCV replicon): ≤ 10 µM; IC50 [1]: ≤ 10 µM

Question: For O=C(Nc1ccc(F)c(-c2cc(-c3c(Cl)cccc3Cl)no2)c1)C(Cl)Cl [Compound 13, 2,2-Dichloro-N-[3-[3-(2,6-dichlorophenyl)-5-isoxazolyl]-4-fluorophenyl] Acetamide], which IC50 (HCV replicon) is on record?
Answer: ≤ 10 µM

Question: And the IC50 [1]?
Answer: ≤ 10 µM

Question: Which results are given for Cc1ccc(F)c(-c2cc(-c3cccc(NC(=O)C(Cl)Cl)c3)on2)c1Cl [Compound 15, 2,2-Dichloro-N-[3-[3-(2-chloro-6-fluoro-3-methylphenyl)-5-isoxazolyl]phenyl] Acetamide]?
Answer: IC50 (HCV replicon): ≤ 10 µM; IC50 [1]: ≤ 10 µM

Question: How did the IC50 (HCV replicon) turn out when O=C(Nc1cccc(-c2cc(-c3c(F)cccc3Cl)no2)c1)C(Cl)Cl [Compound 27, 2,2-Dichloro-N-[3-[3-(2-chloro-6-fluorophenyl)-5-isoxazolyl]phenyl] Acetamide] was run?
Answer: ≤ 10 µM

Question: What about the IC50 [1] of the same compound?
Answer: ≤ 10 µM

Question: Which results are given for Cc1cc(C)c(-c2cc(-c3cccc(NC(=O)C(Cl)Cl)c3)on2)c(C)c1 [Compound 69, 2,2-Dichloro-N-[3-[3-(2,4,6-trimethylphenyl)-5-isoxazolyl]phenyl] Acetamide]?
Answer: IC50 (HCV replicon): ≤ 10 µM; IC50 [2]: 3 µM

Question: Which results are given for O=C(Nc1cccc(-c2cc(-c3c(Cl)cc(OCCN4CCOCC4)cc3Cl)no2)c1)C(Cl)Cl [Compound 75, 2,2-Dichloro-N-[3-[3-[2,6-dichloro-4-(N-morpholinoethyleneoxy)phenyl]-5-isoxazolyl]-phenyl] Acetamide]?
Answer: IC50 (HCV replicon): > 10 µM; IC50 [1]: ≤ 10 µM

Question: How did the IC50 (HCV replicon) turn out when O=C(CI)Nc1cccc(-c2cc(-c3c(Cl)cccc3Cl)no2)c1 [Compound 101, 2-Iodo-N-[3-[3-(2,6-dichlorophenyl)-5-isoxazolyl]phenyl] Acetamide] was run?
Answer: ≤ 10 µM

Question: And the IC50 [1]?
Answer: > 10 µM

Question: Which IC50 (HCV replicon) does the source give for COC(=O)c1ccc(Cl)c(-c2cc(-c3cccc(NC(=O)C(Cl)Cl)c3)on2)c1Cl [Compound 135, 2,2-Dichloro-N-[3-[3-(3-carbomethoxy-2,6-dichlorophenyl)-5-isoxazolyl]phenyl] Acetamide] here?
Answer: > 10 µM

Question: What about the IC50 [1] of the same compound?
Answer: > 10 µM

Question: Cc1cccc(-c2cc(-c3cccc(NC(=O)C(Cl)Cl)c3)on2)c1C [Compound 163, 2,2-Dichloro-N-[3-[3-(2,3-dimethylphenyl)-5-isoxazolyl]phenyl] Acetamide] was tested. Which IC50 (HCV replicon) did it give?
Answer: > 10 µM

Question: And the IC50 [1]?
Answer: > 10 µM
